The results in this text go back to ChEMBL document CHEMBL3124877, “Structure-activity-relationship studies around the 2-amino group and pyridine core of antimalarial 3,5-diarylaminopyridines lead to a novel series of pyrazine analogues with oral in vivo activity” (J Med Chem, 2013).

SMILES strings stand for the structures.

Data set [1] concerns Liver microsome. Particulars: human, microsomes.
The subject of data set [2] is Liver microsome. Description: (§1) Half life in human liver microsomes by LC-MS/MS analysis. Type of data set: ADME. Particulars: microsomes.
The next data set can be described thus: physchem. The conditions noted are these: octanol/water, pH 7.4.
The nature of the next data set: in vitro. Particulars: human, liver microsomes.
Data set [3] can be described thus: as §1. Type of data set: ADME. The conditions noted are these: liver microsomes.
Data set [4] is described as follows: Apparent Cmax in mouse infected with Plasmodium berghei ANKA at 3 mg/kg, po measured after 24 hrs. The conditions noted are these: in vivo. More on the design: dose 3 mg/kg, route oral. Type of data set: ADME, organism-based.
Data set [5] deals with Liver microsome. Description: Metabolic stability in rat liver microsomes. Type of data set: ADME.
A short description of data set [6]: Apparent AUC in mouse infected with Plasmodium berghei ANKA at 3 mg/kg, po measured after 24 hrs. The class given is ADME, organism-based. Also on record: time < 24 hr, dose 3 mg/kg, route oral. Particulars: in vivo.
Another data set deals with Plasma. Briefly: Apparent plasma concentration in mouse infected with Plasmodium berghei ANKA at 3 mg/kg, po measured after 24 hrs. More on the design: dose 3 mg/kg, route oral. Particulars: in vivo. The class given is ADME, organism-based.

As to `COc1ccc(-c2cncc(-c3ccc(S(C)(=O)=O)cc3)c2)cn1`, the CLH in the data set on Liver microsome [1] stood at 11.3 µL/min/mg. This compound yielded a t1/2 with Liver microsome [2] of 0.683 h. Moreover, in the data set “physchem”, the pH-dependent lipophilicity (logD) came to 2.5.
Take `COc1ccc(-c2nc(-c3ccc(S(C)(=O)=O)cc3)cnc2N)cn1`: in the data set “in vitro”, the microsomal CLint came out at 11 µL/min/mg. This compound gave a half-life in data set [3] of 2.57 h. The compound further returned a logD in the data set “physchem” of 2.3.
For `COc1ccc(-c2cc(-c3ccc(S(C)(=O)=O)cc3)nnc2N)cn1` the same measures were less than 7 µL/min/mg, greater than 4.17 h and 1.7.
For `COc1ccc(-c2csc3c(-c4ccc(S(C)(=O)=O)cc4)cnc(N)c23)cn1`, the microsomal CLint in the data set “in vitro” is less than 7 µL/min/mg. For the same compound, the half-life in data set [3] was greater than 4.17 h. The same compound returned a pH-dependent lipophilicity (logD) in “physchem” of 2.9.
`CS(=O)(=O)c1ccc(-c2cnc(N)c(-c3ccc(C(F)(F)F)nc3)n2)cc1`: in data set [4], the Cmax was found to be 1.5 µM. For the same compound, the intrinsic metabolic clearance (microsomal CLint) in “in vitro” was less than 7 µL/min/mg. In the data set with Liver microsome [5], the Stability entry is given as “Stable”. In data set [3], this compound registered a half-life greater than 4.17 h. In “physchem”, this compound showed a logD of 2.8. Also, the exposure (AUC) at 24 h in [6] stood at 24300 nM·h. The Cave with Plasma was 1 µM.
In the case of `CS(=O)(=O)c1ccc(-c2cnc(N)c(-c3ccc(C(F)(F)F)cc3)n2)cc1`, the maximum concentration (Cmax) in data set [4] came to 0.5 µM. In “in vitro”, this compound had a microsomal CLint of 11 µL/min/mg. The same compound returned a half-life in [3] of 2.58 h. In addition, the log distribution coefficient (logD) in the data set “physchem” was 2.8. The AUC at 24 h in data set [6] is 6400 nM·h. Besides, in the data set with Plasma, the Cave stood at 0.3 µM.
In turn, `Nc1ncc(-c2ccc(C(=O)N3CCOCC3)cc2)nc1-c1ccc(C(F)(F)F)nc1` gave an intrinsic metabolic clearance (microsomal CLint) in “in vitro” of less than 7 µL/min/mg. Further, the half-life in [3] was greater than 4.17 h.
For `Nc1ncc(-c2ccc(C(=O)N3CCOCC3)cc2)nc1-c1ccc(C(F)(F)F)cc1`, the Cmax in data set [4] was found to be 1.1 µM. This compound also displayed a microsomal CLint in the data set “in vitro” of less than 7 µL/min/mg. The compound further returned a half-life in data set [3] greater than 4.17 h. The logD in the data set “physchem” was determined as 3.2. In data set [6], the AUC at 24 h is 10 nM·h. Also, in the data set on Plasma, the Cave is 0.01 µM.
On to `CCS(=O)(=O)c1ccc(-c2cnc(N)c(-c3ccc(C(F)(F)F)nc3)n2)cc1`, for which the highest concentration (Cmax) in data set [4] is 1.1 µM. Further, in the data set “in vitro”, the microsomal CLint turned out to be 8 µL/min/mg. In addition, the half-life in [3] came to 3.62 h. Also, in “physchem”, the logD is 3.1. The AUC at 24 h in data set [6] is 10 nM·h. Besides, in the data set with Plasma, the Cave was 0.01 µM.
As for `CNS(=O)(=O)c1ccc(-c2cnc(N)c(-c3ccc(C(F)(F)F)nc3)n2)cc1`, the Cmax in data set [4] is 2 µM. In “in vitro”, this compound yielded a microsomal CLint of 12 µL/min/mg. The half-life in data set [3] came out at 1.85 h. In addition, in “physchem”, the log distribution coefficient (logD) came to 2.8. In addition, in data set [6], the exposure (AUC) at 24 h amounted to 10 nM·h. Moreover, the Cave with Plasma came to 0.01 µM.
For `CNc1ncc(-c2ccc(S(C)(=O)=O)cc2)cc1-c1ccc(OC)nc1`, in “physchem”, the pH-dependent lipophilicity (logD) stood at 2.6.
In turn, `COc1ccc(-c2cc(-c3ccc(S(C)(=O)=O)cc3)cnc2NCCCCN)cn1` had an intrinsic clearance (microsomal CLint) in “in vitro” of less than 7 µL/min/mg. Also, the half-life in data set [3] is greater than 4.17 h. For the same compound, the logD in “physchem” is 1.8.
In turn, `COc1ccc(-c2cc(-c3ccc(S(C)(=O)=O)cc3)cnc2I)cn1` displayed a microsomal CLint in the data set “in vitro” of 7.3 µL/min/mg. The compound further yielded a half-life in data set [3] of 3.97 h. The logD in the data set “physchem” amounted to 3.3.
In turn, `COc1ccc(-c2cc(-c3ccc(S(C)(=O)=O)cc3)cnc2O)cn1` yielded a logD in the data set “physchem” of 1.7.
Turning to `CCOc1ncc(-c2ccc(S(C)(=O)=O)cc2)cc1-c1ccc(OC)nc1`, the microsomal CLint in the data set “in vitro” is 14.2 µL/min/mg. The same compound came in with a half-life in data set [3] of 2.03 h. In the data set “physchem”, this compound yielded a logD of 3.7.
In turn, `COc1ccc(-c2cc(-c3ccc(S(C)(=O)=O)cc3)cnc2C(F)(F)F)cn1` registered a logD in the data set “physchem” of 3.
The compound `COc1ccc(-c2nc(-c3ccc(S(C)(=O)=O)cc3)ccc2N)cn1` returned a log distribution coefficient (logD) in “physchem” of 2.3.
`COc1ccc(-c2cc(-c3ccc(S(C)(=O)=O)cc3)ccc2N)cn1` gave a microsomal CLint in “in vitro” of less than 7 µL/min/mg. For the same compound, the half-life in [3] is greater than 4.17 h. The compound also gave a logD in “physchem” of 2.8.
The compound `COc1ccc(-c2cc(-c3ccc(S(C)(=O)=O)cc3)cnc2N)cn1` gave a microsomal CLint in the data set “in vitro” of 6.2 µL/min/mg. The same compound had a half-life in [3] of 4.68 h. Further, in “physchem”, the logD turned out to be 2.2.
